Common to all, as to assay type: functional
The species entered for assay [1] is Mus musculus. Description: Induction of neuronal differentiation of neuronal progenitor cells isolated from embryonic mouse cerebrum at 1 uM treated every second day for 4 days and measured after 48 hrs by DAPI/MAP2 fluorescent immunostaining based assay.
The species entered for assay [2] is Mus musculus. Description: Induction of neuronal differentiation of neuronal progenitor cells isolated from embryonic mouse cerebrum assessed as increase in MAP2 mRNA expression at 1 uM by real time PCR analysis.
Assay [3] is described as follows: Induction of neuronal differentiation of neuronal progenitor cells isolated from embryonic mouse cerebrum assessed as increase in MAP2 mRNA expression at 1 uM by real time PCR analysis relative to control. (In general: In qPCR the cycle at which signal appears reflects the starting amount.)

The record followed here is ChEMBL document CHEMBL4619710, “Study on structure-activity relationship of vitamin K derivatives: Conversion of the naphthoquinone part into another aromatic ring and evaluation of their neuronal differentiation-inducing activity” (2020).

The source made the active and inactive calls. The calls are words filed in the database; no cut-off is given here.

Consider `COC1=C(OC)C(=O)C(C/C=C(\C)CC/C=C(\C)CC/C=C(\C)CCC=C(C)C)=C(C)C1=O`, for which the outcome in the assay listed under Mus musculus [1] and in the assay filed under Mus musculus [2] was Active. `CC(C)=CCC1=C(C)C(=O)c2ccccc2C1=O`: the outcome in the assay listed under Mus musculus [1] and in the assay filed under Mus musculus [2] was Active. As to `CC(C)=CCC/C(C)=C/CC1=C(C)C(=O)c2ccccc2C1=O`, the outcome in the assay listed under Mus musculus [1] and in the assay listed under Mus musculus [2] was Active. Regarding `COC1=C(OC)C(=O)C(C/C=C(\C)CCC=C(C)C)=C(C)C1=O`, in the assay listed under Mus musculus [1], the outcome was inactive. Consider `CC(C)=CCC/C(C)=C/CC/C(C)=C/CC1=C(C)C(=O)c2ccccc2C1=O`, for which the outcome in the assay filed under Mus musculus [1] and in the assay filed under Mus musculus [2] was Active. With `CC(C)=CCC/C(C)=C/CC/C(C)=C/Cc1cccc(C)c1`, the result in the assay filed under Mus musculus [1] and in the assay listed under Mus musculus [2] was inactive. With `CC(C)=CCC/C(C)=C/CC1=C(C)C(=O)C(C)=C(C)C1=O`, the outcome in the assay filed under Mus musculus [1] and in the assay filed under Mus musculus [2] was Active. In assay [3], the “fold change (FC)” value is reported as 2. For the compound `CC(C)=CCC/C(C)=C/CC/C(C)=C/CC1=C(C)C(=O)C(C)=C(C)C1=O`, the result in the assay filed under Mus musculus [1] and in the assay filed under Mus musculus [2] was Active. Besides, the “fold change (FC)” value in assay [3] is listed as 2.

For the compound `CC(C)=CCC/C(C)=C/Cc1cccc(C)c1`, the result in the assay listed under Mus musculus [1] and in the assay listed under Mus musculus [2] was inactive. For `CC(C)=CCC/C(C)=C/Cc1ccccc1C`, the outcome in the assay listed under Mus musculus [1] and in the assay filed under Mus musculus [2] was inactive. As for `CC1=CC(=O)c2ccccc2C1=O`, in the assay filed under Mus musculus [1], the result was Active. As to `CC(C)=CCC/C(C)=C/CC/C(C)=C/Cc1ccccc1C`, the outcome in the assay listed under Mus musculus [1] and in the assay filed under Mus musculus [2] was inactive. On to `COC1=C(OC)C(=O)C(C/C=C(\C)CC/C=C(\C)CCC=C(C)C)=C(C)C1=O`, for which the result in the assay filed under Mus musculus [1] was inactive.
